Laboratory results: paper PMC10175687 (Frontiers in Pharmacology, 2023)
Where two headings read alike, the source gives them in different places.

Columns and labels:
[1] = set-up: method as in Rowland, 1990; Rybak, 2006; Cavalcanti et al., 2010; details: ref Rowland, 1990, Rybak, 2006, Cavalcanti et al., 2010, cited from earlier work
[2] = set-up: method as in 2 sources, one per row (each row's own in cited_ref): ref Rowland, 1990; Rybak, 2006; Cavalcanti et al., 2010 ||| ref EMA., 2022; details: cited from earlier work; for half-life: ref Rowland, 1990, Rybak, 2006, Cavalcanti et al., 2010
[3] = set-up: species or system human; details: in vivo
Procedure: This was a prospective, open-label PPK study conducted in the ICU department of Peking University First Hospital. […] Pregnant and lactating patients, patients with special sites (endocardium, bone, joints, etc.) infections, or those who received any special treatment that may affect drug elimination, such as renal replacement therapy, were excluded.
The infusion duration was 30–60 min. […] Additionally, in 1/3 patients, 2 mL more blood sample was collected immediately after the 5th infusion; in the other 1/3 patients, 2 mL more blood sample was collected 1 h after the 5th dose, and in the remaining 1/3 patients, 2 mL more concentration sample was taken 1 h before the 6th dose. All blood samples were collected in blood collection tubes anticoagulated by ethylene diamine tetra acetic acid (EDTA) for concentration determination.
Blood samples were centrifuged within 12 h to obtain plasma. Then, 0.4 mL plasma samples were added with 0.05 mL internal standard solution (piperacillin sodium 0.15 mg/mL). Consequently, 0.6 mL acetonitrile was added, and the sample was vigorously shaken for 1 min and centrifuged at 12,000 r/min for 5 min. Then, 0.9 mL of the supernatant was transferred to a centrifuge tube, and 0.4 mL of dichloromethane was added. The solution was vigorously shaken for 1 min and centrifuged at 12,000 r/min for 5 min. The supernatant was then transferred into a vial for detection. HPLC detection conditions were as follows: Waters Symmetry C18 column (250 × 4.6 mm, 5 μm); mobile phase: 0.01 mol/L NaH2PO4 (pH = 3.3)-acetonitrile (75:25), isocratic elution; detection wavelength: 240 nm; flow rate: 1.0 mL/min; injection volume: 0.020 mL; column temperature: 35 °C ([Dong et al., 2011]). […] The above analytical method has passed the methodological verification. […] In terms of sensitivity, the signal-to-noise ratio (S/N) of the LOQ was >10. The relative standard deviations (RSDs) of the intra-day and inter-day precision of simulated plasma samples with high, medium and low concentrations were all less than 10%, and the intra-day and inter-day accuracies were 91.01%–101.13% and 92.98%–98.99%, respectively. […] The stability of simulated plasma samples with high, medium and low concentrations was good after being placed at room temperature for 4 h, frozen and thawed 3 times and stored at −80°C for 60 days, respectively, with the RSDs of tested samples all less than 10%.
The model was established in a stepwise manner. In the basic model screening process, one-, two- and three-compartment models with additive, proportional and mixed error were tested respectively, and the basic model was selected by the objective function value (OFV) and visual diagnostic plots ([Gao et al., 2020]). The model parameters were assumed to follow a log-normal distribution, and the inter-individual variability for each structural parameter was modeled using the following equation: Pi=PTV×Exp ηi (1) where P i represents parameters for the i th individual, P TV are the typical values of the parameters, and η i are random variables with zero mean and variance of ω^2.
Demographic and clinical characteristics that were considered plausible for affecting teicoplanin PK were tested as covariates, including sex, age, height, weight, BMI, ALT, AST, TBIL, DBIL, TP, ALB, WBC, Scr, GFR, and BUN. Individual PK estimates obtained from the selected structural model were firstly plotted against covariate values to assess relationships ([Byrne et al., 2017]). When a relationship between the covariate and the PK parameter was observed, the covariate was tested for inclusion into the PPK model. […]

## CN[C@H](CC(C)C)C(=O)N[C@H]1C(=O)N[C@@H](CC(N)=O)C(=O)N[C@H]2C(=O)N[C@H]3C(=O)N[C@H](C(=O)N[C@H](C(=O)O)c4cc(O)cc(O)c4-c4cc3ccc4O)[C@H](O)c3ccc(c(Cl)c3)Oc3cc2cc(c3O[C@@H]2O[C@H](CO)[C@@H](O)[C@H](O)[C@H]2O[C@H]2C[C@](C)(N)[C@H](O)[C@H](C)O2)Oc2ccc(cc2Cl)[C@H]1O [vancomycin]
[1]; vancomycin
  plasma protein binding rate: 30%–55%
[2]; vancomycin, adults with normal renal function
  half-life: 6 to 12 h

## teicoplanin
[1]; teicoplanin
  plasma protein binding rate: about 90%
[2]; ref EMA., 2022
  renal clearance: 0.13 to 0.2 mL/min/kg
  total clearance: 0.167 to 0.233 mL/min/kg
[2]; teicoplanin
  half-life: 100 to 170 h
[2]; within 8 days after administration, ref EMA., 2022
  dose administered recovered in feces (via bile excretion): 2.7%
[2]; within 16 days, ref EMA., 2022
  unchanged teicoplanin excreted by the urinary route: 80%
[3]
  Q, Estimate (RSE%): 3.12 (10.9) L/h
  Q, bootstrap median (95% PI): 3.14 (2.62–3.90) L/h
  V1, Estimate (RSE%): 20.1 (12.9) L
  V1, bootstrap median (95% PI): 19.8 (16.1–26.2) L
  V2, Estimate (RSE%): 101 (12.7) L
  V2, bootstrap median (95% PI): 98.2 (77.5–122.2) L
  θCL_GFR, Estimate (RSE%): 0.437 (23.8)
  θCL_GFR, bootstrap median (95% PI): 0.441 (0.234–0.740)
[3]; iv
  CL, Estimate (RSE%): 1.03 (16.6) L/h
